Assay results: patent US12257246B2, “Composition of 2,4,6-trifluoro-n-[6-(1-methyl-piperidin-4-carbonyl)-pyridin-2-yl[-benzamide” (CoLucid Pharmaceuticals, Inc., priority 2009, dated 2025)
“Also recorded” adds a separate entry of the source.

Key:
patients with migraine = test: Intravenous dose-finding study in acute migraine: tolerability and safety; format: in vivo, human
Description: The study used a prospective, randomized, double-blind, placebo-controlled design with group-sequential adaptive-treatment assignment (Olesen J et al., N Engl J Med 2004: 350: 1104-10; Hall D B et al., Contemporary Clinical Trials 2005; 26: 349-63). […] The first cohort was allocated to the 2.5 mg dose level. The dose used in subsequent cohorts depended on the headache response (moderate or severe headache reduced to mild or none at 2 hours) of the previous cohort: if 2 or less of the 4 active-treated patients had responded, the dose was increased, and if 3 or more of the 4 active-treated patients had responded, the dose was reduced. The dose adjustment rules were chosen to identify doses of Compound I with efficacy similar to or better than an oral triptan. […] The occurrence of a drug-related serious adverse event would lead to automatic suspension of the randomization pending a safety review.
Data were entered concurrently into an online electronic data capture system. Patients were discharged from the clinic after 4 h and continued to record migraine symptoms and adverse events until 24 h using a diary card.

[1] = system: neuronal protein extravasation; test: Protein extravasation assay (trigeminal ganglion stimulation); format: in vivo, rats or guinea pigs; details: intravenous
Description: Harlan Sprague-Dawley rats (225-325 g) or guinea pigs from Charles River Laboratories (225-325 g) were anesthetized with sodium pentobarbital intraperitoneally (65 mg/kg or 45 mg/kg respectively) and placed in a stereotaxic frame (David Kopf Instruments) with the incisor bar set at −3.5 mm for rats or −4.0 mm for guinea pigs. Following a midline sagital scalp incision, two pairs of bilateral holes were drilled through the skull (6 mm posterially, 2.0 and 4.0 mm laterally in rats; 4 mm posteriorly and 3.2 and 5.2 mm laterally in guinea pigs, all coordinates referenced to bregma). Pairs of stainless steel stimulating electrodes, insulated except at the ends (Rhodes Medical Systems, Inc.), were lowered through the holes in both hemispheres to a depth of 9 mm (rats) or 10.5 mm (guinea pigs) from dura. […]
A fluorescence microscope (Zeiss) equipped with a grating monchromator and a spectrophotometer was used to quantify the amount of Evans Blue dye in each sample. An excitation wavelength of approximately 535 nm was utilized and the emission intensity at 600 nm was determined. […] This facilitated the computer-controlled movement of the stage with fluorescence measurements at 25 points (500 μm steps) on each dural sample. The mean and standard deviation of the measurements were determined by the computer. […]

[2] = system: other 5-HT1 receptor subtypes (5-HT1A, 5-HT1B, 5-HT1D, 5-HT1E); details: cited from earlier work
rabbit saphenous vein = details: concentrations up to 0.1 mM; cited from earlier work
[3] = molecular target: T1, Human 5-HT1F receptor transfected NIH3T3 cells (Homo sapiens, UniProt P30939); test: Inhibition of forskolin stimulated cAMP formation; format: cell-based
T1 construct: expressed in transfected cells; host or cells: NIH3T3 cells
T1 sequence (P30939 1-366): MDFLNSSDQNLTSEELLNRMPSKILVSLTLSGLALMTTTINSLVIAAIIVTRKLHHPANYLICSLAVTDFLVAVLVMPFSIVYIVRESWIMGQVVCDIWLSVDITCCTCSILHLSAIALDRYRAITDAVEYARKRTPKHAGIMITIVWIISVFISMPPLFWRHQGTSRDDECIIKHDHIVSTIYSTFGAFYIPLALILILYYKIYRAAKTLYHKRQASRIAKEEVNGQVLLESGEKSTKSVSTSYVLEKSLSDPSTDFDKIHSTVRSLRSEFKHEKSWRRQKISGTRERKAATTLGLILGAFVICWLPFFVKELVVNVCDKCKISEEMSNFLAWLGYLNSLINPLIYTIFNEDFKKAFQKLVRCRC
Description: As was reported by R. L. Weinshank, et al., WO93/14201, the 5-HT1F receptor is functionally coupled to a G-protein as measured by the ability of serotonin and serotonergic drugs to inhibit forskolin stimulated cAMP production in NIH3T3 cells transfected with the 5-HT1F receptor. Adenylate cyclase activity was determined using standard techniques. A maximal effect is achieved by serotonin. An Emax is determined by dividing the inhibition of a test compound by the maximal effect and determining a percent inhibition. N. Adham, et al., supra; R. L. Weinshank, et al., Proceedings of the National Academy of Sciences (USA), 89:3630-3634, 1992; and the references cited therein.
Human 5-HT1F receptor transfected NIH3T3 cells (estimated Bmax from one point competition studies=488 fmol/mg of protein) were incubated in DMEM, 5 mM theophylline, 10 mM HEPES (4-[2-hydroxyethyl]-1-piperazineethanesulfonic acid) and 10 μM pargyline for 20 minutes at 37° C., 5% CO2. Drug dose-effect curves were then conducted by adding 6 different final concentrations of drug, followed immediately by the addition of forskolin (10 μM). Subsequently, the cells were incubated for an additional 10 minutes at 37° C., 5% CO2. The medium was aspirated and the reaction was stopped by the addition of 100 mM HCl. […] Radioactivity was quantified using a Packard COBRA Auto Gamma counter, equipped with data reduction software.

For `CN1CCC(C(=O)c2cccc(NC(=O)c3c(F)cc(F)cc3F)n2)CC1` [Compound I, 2,4,6-trifluoro-N-[6-(1-methyl-piperidin-4-ylcarbonyl)-pyridin-2-yl]-benzamide], the “Patients with adverse event Fatigue” value (patients with migraine; 2.5 mg iv) was 0.0%, the “Patients with adverse event Feeling of relaxation” value (“Patients … of relaxation” for short) (patients with migraine; 2.5 mg iv) was 0.0% and the “Patients with adverse event Paresthesia” value (patients with migraine; 2.5 mg iv) was 0.0%. The “Patients with adverse event Sensation of heaviness” value (“Patients … of heaviness” for short) (patients with migraine; 2.5 mg iv) was 0.0%, the “Patients … of relaxation” value (patients with migraine; 5 mg iv) was 0.0% and the “Patients with adverse event Paresthesia” value (patients with migraine; 5 mg iv) was 0.0%. For the same compound, the “Patients … of heaviness” value (patients with migraine; 5 mg iv) was 0.0%, the “Patients … of relaxation” value (patients with migraine; 10 mg iv) was 0.0% and the “Patients with adverse event Fatigue” value (patients with migraine; 45 mg iv) was 0.0%. For the same compound, the “Patients … of relaxation” value (patients with migraine; 45 mg iv) was 0.0%, the “Patients … of heaviness” value (patients with migraine; 45 mg iv) was 0.0% and the “patients reporting adverse events” value (patients with migraine; all iv doses 2.5 to 45 mg (placebo 43%)) was 65%. The tolerability (patients with migraine; doses above 60 mg intravenously over 20 minutes) was “not well tolerated”, the “serious adverse events or withdrawals” value (patients with migraine; iv) was “no serious adverse events or withdrawals due to non-serious adverse events” and the “vital signs, ECG, hematological and clinical chemistry parameters” value (patients with migraine; iv) was “No clinically significant changes; also recorded: no clinically significant abnormalities”. For the same compound, the tolerability (patients with migraine; iv 2.5 to 45 mg over 20 min) was “generally well tolerated”, the triptan-like chest symptoms (patients with migraine; iv infusion) was “No patient reported triptan-like chest symptoms; also recorded: no patient-reported chest symptoms or chest discomfort” and the “inhibition of neuronal protein extravasation” value [1] was “significantly inhibit neuronal protein extravasation”. For the same compound, the solubility (Solubility (statement)) was “high solubility”, the “affinity higher for 5-HT1F receptors than for other 5-HT1 receptor subtypes” value [2] was “more than 450 fold” and the “constriction of rabbit saphenous vein” value (rabbit saphenous vein) was “did not constrict”. The “functional activity in cAMP assay” value [3] was “agonist of the 5-HT1F receptor”.
